This assay concerns the target WDR5 (Homo sapiens (Human), UniProt P61964). Nature of the assay: TR-FRET binding assay, displacement of 10mer-Thr-FAM probe from His-tagged WDR5. Particulars: Inhibition of WDR5 by TR-FRET assay. As for the experimental part: The LanthaScreenTM Elite Tb-anti-HIS Antibody from ThermoFisher Scientific was used for this purpose. […] The ratio of the 520 and 495 signals are then utilized to generate a dose-response curve to calculate an IC50 value. […] WDR[…] tag protein is used at 2 nM.
In general terms: Time-resolved FRET reads energy transfer from a long-lived donor to a nearby acceptor.

Regarding `Cc1cc(-c2cc(CNC3=NCCN3)cc(C(=O)NCc3ccc(Cl)cn3)c2)ccn1` [Example 27, N-((5-chloropyridin-2-yl)methyl)-3-(((4,5-dihydro-1H-imidazol-2-yl)amino)methyl)-5-(2-methylpyridin-4-yl)benzamide], the affinity, expressed as Ki, was 1500 pM.
Under `Cc1ccc(CNC(=O)c2cc(CNC3=NCCN3)cc(-c3cnccc3C)c2)cn1` [Example 28, 3-(((4,5-Dihydro-1H-imidazol-2-yl)amino)methyl)-5-(4-methylpyridin-3-yl)-N-((6-methylpyridin-3-yl)methyl)benzamide] stands 7600 pM.
Consider `Cc1cc(-c2cc(CNC3=NCCN3)cc(C(=O)NCc3nccc(C)n3)c2)ccn1` [Example 29, 3-(((4,5-Dihydro-1H-imidazol-2-yl)amino)methyl)-5-(2-methylpyridin-4-yl)-N-((4-methylpyrimidin-2-yl)methyl)benzamide], for which affinity was put at a Ki of 13000 pM.
Under `COc1cc(CNC(=O)c2cc(CNC3=NCCN3)cc(-c3cnc(F)c(C)c3)c2)cc(OC)c1` [Example 30, 3-(((4,5-Dihydro-1H-imidazol-2-yl)amino)methyl)-N-(3,5-dimethoxybenzyl)-5-(6-fluoro-5-methylpyridin-3-yl)benzamide] stands 330 pM.
To `Cc1cc(CNC(=O)c2cc(CNC3=NCCN3)cc(-c3cnc(F)c(C)c3)c2)ccc1Cl` [Example 31, N-(4-Chloro-3-methylbenzyl)-3-(((4,5-dihydro-1H-imidazol-2-yl)amino)methyl)-5-(6-fluoro-5-methylpyridin-3-yl)benzamide] belongs under 100 pM; to `Cc1cccc(Oc2cc(CNC3=NCCN3)cc(C(=O)NCc3ccc(Cl)c(Cl)c3)c2)c1` [Example 32, N-(3,4-Dichlorobenzyl)-3-(((4,5-dihydro-1H-imidazol-2-yl)amino)methyl)-5-(m-tolyloxy)benzamide], 910 pM.
Under `COc1cc(OC)cc(C(C)NC(=O)c2cc(CNC3=NCCN3)cc(C(F)(F)F)c2)c1` (stereo not drawn) [Example 33, 3-(((4,5-Dihydro-1H-imidazol-2-yl)amino)methyl)-N-(1-(3,5-dimethoxyphenyl)ethyl)-5-(trifluoromethyl)benzamide] stands 8900 pM; under `COc1cc(CNC(=O)c2cc(CNC3=NCCN3)cc(-c3cnc(OC)c(Cl)c3)c2)cc(OC)c1` [Example 34, 3-(5-Chloro-6-methoxypyridin-3-yl)-5-(((4,5-dihydro-1H-imidazol-2-yl)amino)methyl)-N-(3,5-dimethoxybenzyl)benzamide], 370 pM.
Consider `COc1cc(CNC(=O)c2cc(CNC3=NCCN3)cc(-c3cnc(F)c(Cl)c3)c2)cc(OC)c1` [Example 35, 3-(5-Chloro-6-fluoropyridin-3-yl)-5-(((4,5-dihydro-1H-imidazol-2-yl)amino)methyl)-N-(3,5-dimethoxybenzyl)benzamide], for which the inhibition constant Ki (commonly the equilibrium dissociation constant of an inhibitor or competing ligand from its target) was 360 pM.
To `Cc1cnc(CNC(=O)c2cc(CNC3=NCCN3)cc(-c3ccc(F)nc3C)c2)cn1` [Example 36, 3-(((4,5-dihydro-1H-imidazol-2-yl)amino)methyl)-5-(6-fluoro-2-methylpyridin-3-yl)-N-((5-methylpyrazin-2-yl)methyl)benzamide] belongs 2800 pM.
Under `Cc1ncc(CNC(=O)c2cc(CNC3=NCCN3)cc(-c3ccc(F)nc3C)c2)cn1` [Example 37, 3-(((4,5-dihydro-1H-imidazol-2-yl)amino)methyl)-5-(6-fluoro-2-methylpyridin-3-yl)-N-((2-methylpyrimidin-5-yl)methyl)benzamide] stands 2100 pM; under `Cc1cnc(F)c(-c2cc(CNC3=NCCN3)cc(C(=O)NCc3cc(Cl)ccn3)c2)c1` [Example 38, N-((4-chloropyridin-2-yl)methyl)-3-(((4,5-dihydro-1H-imidazol-2-yl)amino)methyl)-5-(2-fluoro-5-methylpyridin-3-yl)benzamide], 260 pM; under `Cc1ccnc(C(NC(=O)c2cc(CNC3=NCCN3)cc(-c3cc(C)cnc3F)c2)C2CC2)c1` (stereo not drawn) [Example 39, N-(cyclopropyl(4-methylpyridin-2-yl)methyl)-3-(((4,5-dihydro-1H-imidazol-2-yl)amino)methyl)-5-(2-fluoro-5-methylpyridin-3-yl)benzamide], under 100 pM.
In the case of `Cc1cnc(F)c(-c2cc(CNC3=NCCN3)cc(C(=O)N(C)C)c2)c1` [Example 40, 3-(((4,5-dihydro-1H-imidazol-2-yl)amino)methyl)-5-(2-fluoro-5-methylpyridin-3-yl)-N,N-dimethylbenzamide], the Ki came out at 64000 pM.
Under `Cc1cnc(F)c(-c2cc(CNC3=NCCN3)cc(C(=O)NCc3ccc(Cl)c(C)c3)c2)c1` [Example 42, N-(4-chloro-3-methylbenzyl)-3-(((4,5-dihydro-1H-imidazol-2-yl)amino)methyl)-5-(2-fluoro-5-methylpyridin-3-yl)benzamide] stands under 100 pM.
To `COc1cc(OC)cc(C(C)NC(=O)c2cc(CNC3=NC(=O)CN3C)cc(-c3ccc(F)nc3C)c2)c1` (stereo not drawn) [Example 44, N-(1-(3,5-dimethoxyphenyl)ethyl)-3-(6-fluoro-2-methylpyridin-3-yl)-5-(((1-methyl-4-oxo-4,5-dihydro-1H-imidazol-2-yl)amino)methyl)benzamide] belongs 17000 pM; to `COc1ccnc(CNC(=O)c2cc(CNC3=NCCN3)cc(-c3cc(C(C)C)ccc3OC)c2)c1` [Example 45, 5-(((4,5-dihydro-1H-imidazol-2-yl)amino)methyl)-5′-isopropyl-2′-methoxy-N-((4-methoxypyridin-2-yl)methyl)-[1,1′-biphenyl]-3-carboxamide], 1010 pM.
To `COc1ccnc(CNC(=O)c2cc(CNC3=NCCN3)cc(-c3cc(C(F)(F)F)cnc3OC)c2)c1` [Example 46, 3-(((4,5-dihydro-1H-imidazol-2-yl)amino)methyl)-5-(2-methoxy-5-(trifluoromethyl)pyridin-3-yl)-N-((4-methoxypyridin-2-yl)methyl)benzamide] belongs 100 pM.
In the case of `COc1ccnc(CNC(=O)c2cc(CNC3=NCCN3)cc(-c3ccc(F)cc3C(F)(F)F)c2)c1` [Example 47, 5-(((4,5-dihydro-1H-imidazol-2-yl)amino)methyl)-4′-fluoro-N-((4-methoxypyridin-2-yl)methyl)-2′-(trifluoromethyl)-[1,1′-biphenyl]-3-carboxamide], the Ki is under 100 pM.
To `COc1ccnc(CNC(=O)c2cc(CNC3=NCCN3)cc(-c3cc(F)cnc3OC)c2)c1` [Example 48, 3-(((4,5-dihydro-1H-imidazol-2-yl)amino)methyl)-5-(5-fluoro-2-methoxypyridin-3-yl)-N-((4-methoxypyridin-2-yl)methyl)benzamide] belongs 630 pM; to `COc1ccnc(CNC(=O)c2cc(CNC3=NCCN3)cc(-c3ccc(F)cc3OC)c2)c1` [Example 49, 5-(((4,5-Dihydro-1H-imidazol-2-yl)amino)methyl)-4′-fluoro-2′-methoxy-N-((4-methoxypyridin-2-yl)methyl)-[1,1′-biphenyl]-3-carboxamide], 300 pM.
Compound `COc1ccnc(CNC(=O)c2cc(CNC3=NCCN3)cc(-c3cc(C)c(F)cc3OC)c2)c1` [Example 50, 5-(((4,5-Dihydro-1H-imidazol-2-yl)amino)methyl)-4′-fluoro-2′-methoxy-N-((4-methoxypyridin-2-yl)methyl)-5′-methyl-[1,1′-biphenyl]-3-carboxamide] gave an inhibitory constant (Ki) of under 100 pM.
Under `COc1ccnc(CNC(=O)c2cc(CNC3=NCCN3)cc(-c3cc(C)c(F)cc3C)c2)c1` [Example 51, 5-(((4,5-Dihydro-1H-imidazol-2-yl)amino)methyl)-4′-fluoro-N-((4-methoxypyridin-2-yl)methyl)-2′,5′-dimethyl-[1,1′-biphenyl]-3-carboxamide] stands under 100 pM; under `COc1cc(CNC(=O)c2cc(CNC3=NCCC3)cc(-c3cccn3C)c2)cc(OC)c1` [Example 58, 3-(((3,4-Dihydro-2H-pyrrol-5-yl)amino)methyl)-N-(3,5-dimethoxybenzyl)-5-(1-methyl-1H-pyrrol-2-yl)benzamide], 5800 pM.
To `COc1cc(CNC(=O)c2cc(CNC3=NCCC3)cc(-c3ccncc3C)c2)cc(OC)c1` [Example 61, 3-(((3,4-Dihydro-2H-pyrrol-5-yl)amino)methyl)-N-(3,5-dimethoxybenzyl)-5-(3-methylpyridin-4-yl)benzamide] belongs 1800 pM; to `COc1cc(CNC(=O)c2cc(CNC3=NCCC3)cc(-c3cc(C)c(F)cc3C)c2)cc(OC)c1` [Example 62, 5-(((3,4-Dihydro-2H-pyrrol-5-yl)amino)methyl)-N-(3,5-dimethoxybenzyl)-4′-fluoro-2′,5′-dimethyl-[1,1′-biphenyl]-3-carboxamide], 210 pM.
Consider `Cc1cc(CNC(=O)c2cc(CNC3=NCCC3)cc(-c3ccc(F)c(CO)c3)c2)ccc1Cl` [Example 65, N-(4-chloro-3-methylbenzyl)-5-(((3,4-dihydro-2H-pyrrol-5-yl)amino)methyl)-4′-fluoro-3′-(hydroxymethyl)-[1,1′-biphenyl]-3-carboxamide], for which the affinity, expressed as Ki, was 4300 pM.
`Cc1cc(-c2cc(CNC3=NCCC3)cc(C(=O)NCc3ccc(Cl)c(C)c3)c2)c(C)cc1F` [Example 66, N-(4-Chloro-3-methylbenzyl)-5-(((3,4-dihydro-2H-pyrrol-5-yl)amino)methyl)-4′-fluoro-2′,5′-dimethyl-[1,1′-biphenyl]-3-carboxamide] returned a Ki of 380 pM.
Under `Cc1nc(F)ccc1-c1cc(CNC2=NCCN2)cc(C(=O)NCc2ccc(Cl)c(F)c2)n1` [Example 73, N-(4-Chloro-3-fluorobenzyl)-4-(((4,5-dihydro-1H-imidazol-2-yl)amino)methyl)-6′-fluoro-2′-methyl-[2,3′-bipyridine]-6-carboxamide] stands 430 pM.
Under `COc1cc(OC)cc(C(C)NC(=O)c2cc(CNC3=NCCN3)cc(-c3ccc(F)nc3C)n2)c1` (stereo not drawn) [Example 75, 4-(((4,5-Dihydro-1H-imidazol-2-yl)amino)methyl)-N-(1-(3,5-dimethoxyphenyl)ethyl)-6′-fluoro-2′-methyl-[2,3′-bipyridine]-6-carboxamide] stands 800 pM.

These data come from patent US10807959B2, “WDR5-MLL1 inhibitors and modulators” (Vanderbilt University, priority 2018, dated 2020).
